Measured values reported in patent US20120009320A1, “COMPOSITIONS COMPRISING MONATIN AND CALCIUM” (priority 2009, published 2012).
Structures can show the parent of a compound that is named as a salt.

How the values were obtained:
panelists [1] = assay: Concentration-response of monatin sweetness (SEV) in milk and diluted yogurt, Example 2; type: in vivo, human
Description: Monatin, aspartame and sucralose samples were prepared in milk (2% fat) and diluted with plain, fat-free yogurt. Sucrose reference solutions were prepared in solutions of the same medium.
Panelists (8-10) were presented with a range (2-12%; w/v) of sucrose reference solutions and a single test sample. They were instructed to taste the test sample and then to identify the reference sample that matched the perceived sweetness of the test sample. If the sweetness of the test sample was judged to fall between that of two references, panelists were asked to estimate sweetness to one decimal point. Panelists evaluated each sample in duplicate. All results for each test sample were averaged.
Sweetener test samples and sucrose references were prepared as solutions in the following mediums: • (1) Milk (2% fat) at pH 6.8. • (2) A diluted plain (unsweetened and unflavored) yogurt was sheared with water (80 parts yogurt and 20 parts water) to yield an acidic solution based on fermented milk with a final pH of 4.6.

panelists [2] = assay: Three-member panel rating (0-9 scale) of difference in sweetness due to calcium at <=200 ppm; type: in vivo, human; set-up: key: 0 = none; 1 = trace; 2 = faint; 3 = slight; 4 = mild; 5 = moderate; 6 = definite; 7 = strong; 8 = very strong; 9 = extreme; conditions: 20 ppm monatin in water, vs control without calcium
Description: The samples in Table 5 were prepared by adding 20 ppm of monatin to water in combination with an amount of calcium ranging between 12.5 ppm and 200 ppm. A control sample having 20 ppm of monatin and no calcium was also used. The monatin was in the R,R, form and prepared through a biosynthetic pathway as disclosed in U.S. Patent Publication No. 2005/282260. A three-member panel was used to evaluate sweetness, but instead of quantifying the sample in terms of sweetness equivalency (SEV), the panelists assigned the sample a number between 0 and 9 (see description of scale under Table 5).

[3] = Diluted Yogurt (pH 4.6), monatin 10 ppm
[4] = Diluted Yogurt (pH 4.6), monatin 20 ppm
[5] = Diluted Yogurt (pH 4.6), monatin 30 ppm
[6] = Diluted Yogurt (pH 4.6), monatin 40 ppm
[7] = Diluted Yogurt (pH 4.6), monatin 50 ppm
[8] = Milk, 2% fat (pH 6.8), monatin 5 ppm
[9] = Milk, 2% fat (pH 6.8), monatin 10 ppm
[10] = Milk, 2% fat (pH 6.8), monatin 20 ppm
[11] = Milk, 2% fat (pH 6.8), monatin 30 ppm
[12] = Milk, 2% fat (pH 6.8), monatin 40 ppm
[13] = Milk, 2% fat (pH 6.8), monatin 50 ppm

`NC(CC(O)(Cc1c[nH]c2ccccc12)C(=O)O)C(=O)O` (stereo not drawn) [R,R-Monatin, 2R,4R-Monatin mono potassium salt] was tested, and the “Relative Sweetness” value (panelists [1]; [3]) was 4,000 ×sucrose, the SEV (panelists [1]; [3]) was 4.0 % sucrose; w/v and the “Relative Sweetness” value (panelists [1]; [4]) was 3,300 ×sucrose. For the same compound, the SEV (panelists [1]; [4]) was 6.6 % sucrose; w/v, the “Relative Sweetness” value (panelists [1]; [5]) was 3,100 ×sucrose and the SEV (panelists [1]; [5]) was 9.3 % sucrose; w/v. For the same compound, the “Relative Sweetness” value (panelists [1]; [6]) was 2,625 ×sucrose, the SEV (panelists [1]; [6]) was 10.5 % sucrose; w/v and the “Relative Sweetness” value (panelists [1]; [7]) was 2,280 ×sucrose. For the same compound, the SEV (panelists [1]; [7]) was 11.4 % sucrose; w/v, the “Relative Sweetness” value (panelists [1]; [8]) was 4,000 ×sucrose and the SEV (panelists [1]; [8]) was 2.0 % sucrose; w/v. The “Relative Sweetness” value (panelists [1]; [9]) was 3,000 ×sucrose, the SEV (panelists [1]; [9]) was 3.0 % sucrose; w/v and the “Relative Sweetness” value (panelists [1]; [10]) was 2,750 ×sucrose. For the same compound, the SEV (panelists [1]; [10]) was 5.5 % sucrose; w/v, the “Relative Sweetness” value (panelists [1]; [11]) was 2,270 ×sucrose and the SEV (panelists [1]; [11]) was 6.8 % sucrose; w/v. For the same compound, the “Relative Sweetness” value (panelists [1]; [12]) was 2,100 ×sucrose, the SEV (panelists [1]; [12]) was 8.4 % sucrose; w/v and the “Relative Sweetness” value (panelists [1]; [13]) was 1,780 ×sucrose. For the same compound, the SEV (panelists [1]; [13]) was 8.9 % sucrose; w/v, the “Difference in Sweetness Due to Calcium” value (panelists [2]; calcium 12.5 ppm) was 1 and the “Difference in Sweetness Due to Calcium” value (panelists [2]; calcium 25 ppm) was 3. For the same compound, the “Difference in Sweetness Due to Calcium” value (panelists [2]; calcium 50 ppm) was 4, the “Difference in Sweetness Due to Calcium” value (panelists [2]; calcium 100 ppm) was 5 and the “Difference in Sweetness Due to Calcium” value (panelists [2]; calcium 200 ppm) was 6.
